Data on 47 sequences can be found in the OligoGym collection.

These antisense oligonucleotides have a phosphorothioate backbone; sugars and methylation of C are not fully specified.
Further: test concentration or dose not given here.

One data set addresses REL. The settings on record: ASO.
In the case of CAAAATGCTGCATCTATA, the remaining target (mRNA or protein) (fraction of control) was 0.79.

With TCTCTCACAACTGCATCA, the remaining target (mRNA or protein) (fraction of control) came out at 0.58.

Sequence CGGTTGTTGTCTGTGCTG showed a remaining target (mRNA or protein) (fraction of control) of 0.38. Sequence ATTCTCAGTCAGTATTAT yielded a remaining target (mRNA or protein) (fraction of control) of 0.75. Take CGAGACAACAGGAGGAAG: the remaining target (mRNA or protein) (fraction of control) is 0.8. TTTCTACGTGATCCTGGC: the remaining target (mRNA or protein) (fraction of control) came out at 0.85. Regarding TGTAATCCCAGCACTTTG, the remaining target (mRNA or protein) (fraction of control) was 0.73.

On to CACAATTCTTGTTTACAC, for which the remaining target (mRNA or protein) (fraction of control) was 0.84. Same read-out and setting: as for GAGGTTTATATGGGTCAT, the figure is no less than 1; as for AAACAGTAGTATTGGAAT, no less than 1. TTGTATTCGCTATGTCCA had a remaining target (mRNA or protein) (fraction of control) of 0.53. Regarding ACACGACAAATCCTTAAT, the remaining target (mRNA or protein) (fraction of control) is no less than 1.

The next data set addresses SUMO1. The settings on record: ASO.
As to AATTTCCAGTATTTATGC, the remaining target (mRNA or protein) (fraction of control) was found to be 0.45. With AAATCCTTCCCCTTCCCG, the remaining target (mRNA or protein) (fraction of control) is no less than 1.

As to TCCGTTTTGAACACCACA, the remaining target (mRNA or protein) (fraction of control) is 0.29. Turning to ACTGCTATCCTGTCCAAT, the remaining target (mRNA or protein) (fraction of control) stood at 0.67. For the sequence ACTTCCATCTCCCACTGA, the remaining target (mRNA or protein) (fraction of control) worked out at 0.47. Consider GTCTTTGACAGTATGATT, for which the remaining target (mRNA or protein) (fraction of control) is no less than 1.

AAACAATAATGAATAATG gave a remaining target (mRNA or protein) (fraction of control) of no less than 1. Turning to AACTTCCGCTACGCCTCG, the remaining target (mRNA or protein) (fraction of control) was no less than 1.

As to AGCAGTGTTCTGTTGTAT, the remaining target (mRNA or protein) (fraction of control) is no less than 1. The same measure, in the same setting: then ATTCACCTTCCTTCTTAT, with 0.55; and TCACCTTATCTGTCATCT, with no less than 1; and TTCTTTGAGTTTCTTGAG, with no less than 1.

Sequence TGAATCTCACTGCTATCC had a remaining target (mRNA or protein) (fraction of control) of no less than 1. As to CCTCAAAGAGAAACCTGA, the remaining target (mRNA or protein) (fraction of control) was no less than 1. Sequence GGGTCTCCGCACAGCAGC came in with a remaining target (mRNA or protein) (fraction of control) of no less than 1. TTCATTGGAACACCCTGT: the remaining target (mRNA or protein) (fraction of control) worked out at 0.32. Consider GATAAACTTCAATCACAT, for which the remaining target (mRNA or protein) (fraction of control) is no less than 1. The sequence TCCATCTCCCACTGAAAG yielded a remaining target (mRNA or protein) (fraction of control) of 0.53. ATAATGAATAATGAGCAC displayed a remaining target (mRNA or protein) (fraction of control) of no less than 1. Consider ATGATTCTTTGAGTTTCT, for which the remaining target (mRNA or protein) (fraction of control) is 0.59. CAGTATGATTCTTTGAGT had a remaining target (mRNA or protein) (fraction of control) of 0.53. Consider CTGTCCAATGACTTTGAG, for which the remaining target (mRNA or protein) (fraction of control) is no less than 1. For CAGATGTTTCAAAGAGAT, the remaining target (mRNA or protein) (fraction of control) was no less than 1. Still for that read-out and setting: then ACATGATGACGGTGGCTT, with no less than 1; and CCACAGTTCAGTTCTCTG, with 0.34. Sequence TTCCTCCATTCCCAGTTC gave a remaining target (mRNA or protein) (fraction of control) of no less than 1. For the sequence GGCACTTCAGTAACTTTC, the remaining target (mRNA or protein) (fraction of control) was found to be 0.79.

GGGTTTACAAATCCTTCC returned a remaining target (mRNA or protein) (fraction of control) of no less than 1.

With CTTTGGAGTTAGTCATTA, the remaining target (mRNA or protein) (fraction of control) was no less than 1. Regarding CTCAGTTGAAGGTTTTGC, the remaining target (mRNA or protein) (fraction of control) was no less than 1. For ACAATGAAAACAAACAAT, the remaining target (mRNA or protein) (fraction of control) was no less than 1. In the case of CCAGGAGTGAAGTAATCA, the remaining target (mRNA or protein) (fraction of control) is no less than 1. ATTCTCTGACCCTCAAAG yielded a remaining target (mRNA or protein) (fraction of control) of no less than 1. For the sequence ACCACATTACAAAAGAAC, the remaining target (mRNA or protein) (fraction of control) is no less than 1. For the sequence GTTTCTTGAGATGTGTTG, the remaining target (mRNA or protein) (fraction of control) came to 0.86.
